The values below come from US9408925B2, “Hyperpolarized lactate contrast agent for determination of LDH activity” (GE Healthcare Limited, priority 2010, dated 2016).

Data set [1] is described as follows: T1 estimated from series of heteronuclear 13C/1H double echo spectra of hyperpolarized equimolar lactate mixture. Conditions: 10 mM, multiple double echo spectra (FIG. 6). The class given is physicochemical. How it is done:
L-[1-^13C1] lactate was hyperpolarized using the DMSO preparation described in (Chen, A. P., et al. Feasibility of using hyperpolarized [1-C-13] lactate as a substrate for in vivo metabolic C-13 MRSI studies. Magnetic Resonance Imaging 26, 721-726 (2008)) with added Gd^3+. Briefly, 70 mg of a ˜50% w/w sodium L-[1-^13C1] lactate solution (0.31 mmol) (Sigma Aldrich, Gillingham, UK) is added to 27 mg DMSO (0.36 mmol) (Sigma Aldrich, Gillingham, UK), 2 mg OX 63 radical (1.4 μmol)(GE Healthcare) and 2.7 mg of a 50 mmol/L solution of Dotarem Gd^3+ chelate (Guerbet, Roissy, France). For in vitro experiments, one third of the resulting solution is polarised to the maximum at the optimal microwave frequency. Once the polarisation is at a maximum, the dissolution is performed with 6 mL of a 40 mmol/L Tris based buffer (pH=7.6) with added 100 mg/L EDTA. The final concentration of hyperpolarised L-[1-^13C1] lactate is then approximately 17 mmol/L. Acquisition of hetero-nuclear ^13C/^1H double echo spectra (TE=300 ms), with and without a 180° ^1H pulse, gave the spectra shown in FIG. 4.
An equimolar mixture of L-[1-^13C1] lactate and L-[1-^13C1, 2-^2H1] lactate was prepared and polarized to ˜26+/−0.5% (n=2). The final lactate concentration in the NMR tube was 10 mM.
Spectra were acquired with and without the 180° ^1H pulse. […]

A short description of data set [2]: 13C T1 and T2 relaxation of non-polarized lactate samples (10 mM) at 9.4 T. The class given is physicochemical. How it is done: For FIG. 3, the samples contained 10 mM of either L-[1-^13C1, 2-^2H1] lactate or L-[1-^13C1] lactate (non-polarized). The T1 of the deuterated lactate was 55.8+/−2.2 s (n=1) and the T2 1.33+/−0.10 s (n=4) and the T1 of the C2 protonated lactate was 46.9+/−4.0 s (n=1) and the T2 1.49+/−0.13 s (n=2) (at 9.4 T). Heteronuclear ^13C/^1H double echo spectra were acquired using a 10 μs 90° ^13C pulse, a 5 ms adiabatic 180° ^13C pulse (bandwidth ˜2 kHz) and a 10 ms adiabatic ^1H pulse (bandwidth ˜1 kHz), which was centered on either the C2 or C3 lactate proton resonances (FIG. 2B). The TR was 20 s. Initial dummy scans produced a steady state z magnetization. The spectral bandwidth was 8 kHz and data were collected into 2048 complex points. Phase and amplitude corrected peak integrals for the lactate ^13C resonance were measured. The echo time is equivalent to 2τ.

On to `[2H][C@@](C)(O)[13C](=O)O` [L-[1-^13C1,2-^2H1] lactate, L-[1-^13C, 2-^2H] Lactate], for which the “estimated T1” value in data set [1] is reported as 27 s. In data set [2], this molecule registered a T1 of 55.8 ± 2.2 s and a T2 of 1.33 ± 0.10 s.

With `C[C@H](O)[13C](=O)[O-].[Na+]` [L-[1-^13C1] lactate, Sodium L-[1-^13C1] lactate], the “estimated T1” value in data set [1] was 25 s. In data set [2], this molecule returned a T1 of 46.9 ± 4.0 s and a T2 of 1.49 ± 0.13 s.
